Read-outs that look alike come from different tables or passages of the source.
What was measured:
[1] = tested on: Porcine Salmonella typhimurium; assay: In vitro antibacterial action, appearance of growth in Brain Heart Infusion, pH 6 (Tables 3 and 4); format: cell-based; conditions: for Incubation time and appearance of growth: pH 6, inoculation 10^5, Brain Heart Infusion, 3 replications; for Concentration exhibiting inhibitory potency (no growth) in all three replicates: porcine Salmonella typhimurium, tested 5000-40000 ppm
E. coli [2] = assay: In vitro antibacterial action, appearance of growth in Brain Heart Infusion, pH 5 (Table 5); conditions: for Incubation time and appearance of growth: pH 5, inoculation 10^5, Brain Heart Infusion, 3 replications
Penicillium spp = assay: In vitro sensitivity test towards filamentous fungi (Example 5), Penicillium; format: cell-based; conditions: 5 ml fungal suspension + 5 ml product, 24 hours at 20±4° C.; read after 5 days; control 97000
Experimental: (§1) In Vitro Sensitivity Tests towards Filamentous Fungi (Moulds)
(§2) Strains of Aspergillus spp, Penicillium spp and Fusarium spp were utilized for the test, having been isolated and identified during diagnostic activity at the IZSLER section of Forli from complete feeds used in the chicken industry. To prepare the inoculum, mycelium of pure cultures of the tested strains was collected using a swab. The material thus collected was dissolved in a culture broth (BHI—Brain Heart Infusion). 5 ml of the fungal suspension and an equal amount of the product to be tested were placed in contact in a test tube. The test tube was incubated at 20±4° C. for 24 hours.
(§3) After this time period, the fungal suspension was then seeded and enumerated.
(§4) The control suspension was obtained by placing 5 ml of fungal suspension+5 ml of diluent (Ringer's lactate) into a test tube. Reading of the tests was carried out after a 5 day incubation period at 20±4° C.

Salmonella typhimurium = assay: Antibacterial potency (Table 1), Salmonella typhimurium count
Aspergillus spp = assay: In vitro sensitivity test towards filamentous fungi (Example 5), Aspergillus; format: cell-based; conditions: 5 ml fungal suspension + 5 ml product, 24 hours at 20±4° C.; read after 5 days; control 450000
Experimental: as §1, §2, §3, §4

E. coli [3] = assay: Antibacterial potency (Table 1), E. coli count; format: cell-based
Campylobacter jejuni = assay: Antibacterial potency (Table 1), Campylobacter jejuni count
Fusarium spp = assay: In vitro sensitivity test towards filamentous fungi (Example 5), Fusarium; format: cell-based; conditions: 5 ml fungal suspension + 5 ml product, 24 hours at 20±4° C.; read after 5 days; control 310000
Experimental: as §1, §2, §3, §4

[4] = tested on: Clostridium perfringens CP27; format: cell-based; conditions: for Incubation time and appearance of growth: inoculation 10^5, Brain Heart Infusion, 3 replications; for Concentration exhibiting inhibitory potency (no growth) in all three replicates: Clostridium perfringens, tested 500-4000 ppm
[5] = pH 4.5, conc. used: Propionic acid 1:909, Butyric Acid 1:1000, Monobutyrin 43 1:100
[6] = pH 7, conc. used: Propionic acid 1:909, Butyric Acid 1:1000, Monopropionin 43 1:109, Monobutyrin 43 1:100

Formic acid monoglycerides
Incubation time and appearance of growth ([1]; 5000 ppm, Table 4): + (+ for 24 hr)
Incubation time and appearance of growth ([1]; 10000 ppm, Table 4): + (+ for 24 hr)
Incubation time and appearance of growth ([1]; 15000 ppm, Table 4): + (+ for 24 hr)
Incubation time and appearance of growth ([1]; 20000 ppm, Table 4): + (+ for 24 hr)
Incubation time and appearance of growth ([1]; 25000 ppm, Table 4): no growth
Incubation time and appearance of growth ([1]; 30000 ppm, Table 4): no growth
Incubation time and appearance of growth ([1]; 40000 ppm, Table 4): no growth
Concentration exhibiting inhibitory potency (no growth) in all three replicates ([1]; formic acid series): ≥ 25,000 ppm

O=C(O)/C=C/C(=O)O [Fumaric acid]
Incubation time and appearance of growth (E. coli [2]; 10000 ppm): + (+ for 24 hr)
Incubation time and appearance of growth (E. coli [2]; 20000 ppm): + (+ for 24 hr)
Incubation time and appearance of growth (E. coli [2]; 40000 ppm): + (+ for 24 hr)
Incubation time and appearance of growth (E. coli [2]; 60000 ppm): ++ (++ for 37 hr)
Incubation time and appearance of growth (E. coli [2]; 80000 ppm): ++ (++ for 37 hr)
Incubation time and appearance of growth (E. coli [2]; 90000 ppm): no growth
Incubation time and appearance of growth (E. coli [2]; 100000 ppm): no growth
Concentration exhibiting inhibitory potency (no growth) in all three replicates (E. coli [2]; E. coli, tested 10000-100000 ppm): ≥ 90,000 ppm

CCC(=O)O [Propionic acid]
PENICILLIUM spp. count (Penicillium spp): <100 cfu/ml
Salmonella typhimurium (cfu/ml) (Salmonella typhimurium; [5]): 42 × 10^3 cfu/ml
Salmonella typhimurium (cfu/ml) (Salmonella typhimurium; [6]): 11 × 10^4 cfu/ml
ASPERGILLUS spp. count (Aspergillus spp): 300 cfu/ml
E. coli (cfu/ml) (E. coli [3]; [5]): 13 × 10^4 cfu/ml
E. coli (cfu/ml) (E. coli [3]; [6]): 54 × 10^4 cfu/ml
Campylobacter jejuni (cfu/ml) (Campylobacter jejuni; [5]): 14 × 10^1 cfu/ml
Campylobacter jejuni (cfu/ml) (Campylobacter jejuni; [6]): 33 × 10^3 cfu/ml
FUSARIUM spp. count (Fusarium spp): 300 cfu/ml

CCCC(=O)O [Butyric Acid]
Salmonella typhimurium (cfu/ml) (Salmonella typhimurium; [5]): 25 × 10^3 cfu/ml
Salmonella typhimurium (cfu/ml) (Salmonella typhimurium; [6]): 65 × 10^4 cfu/ml
Incubation time and appearance of growth ([4]; 500 ppm): + (+ for 24 hr)
Incubation time and appearance of growth ([4]; 1000 ppm): + (+ for 24 hr)
Incubation time and appearance of growth ([4]; 1500 ppm): + (+ for 24 hr)
Incubation time and appearance of growth ([4]; 2000 ppm): ++ (++ for 37 hr)
Incubation time and appearance of growth ([4]; 2500 ppm): ++ (++ for 37 hr)
Incubation time and appearance of growth ([4]; 3000 ppm): no growth
Incubation time and appearance of growth ([4]; 4000 ppm): no growth
Concentration exhibiting inhibitory potency (no growth) in all three replicates [4]: ≥ 3000 ppm
E. coli (cfu/ml) (E. coli [3]; [5]): 78 × 10^4 cfu/ml
E. coli (cfu/ml) (E. coli [3]; [6]): 106 × 10^4 cfu/ml
Campylobacter jejuni (cfu/ml) (Campylobacter jejuni; [5]): 2 × 10^1 cfu/ml
Campylobacter jejuni (cfu/ml) (Campylobacter jejuni; [6]): 18 × 10^3 cfu/ml

Butyric acid monoglycerides
Incubation time and appearance of growth ([4]; 500 ppm): + (+ for 24 hr)
Incubation time and appearance of growth ([4]; 1000 ppm): + (+ for 24 hr)
Incubation time and appearance of growth ([4]; 1500 ppm): + (+ for 24 hr)
Incubation time and appearance of growth ([4]; 2000 ppm): + (+ for 24 hr)
Incubation time and appearance of growth ([4]; 2500 ppm): + (+ for 24 hr)
Incubation time and appearance of growth ([4]; 3000 ppm): + (+ for 24 hr)
Incubation time and appearance of growth ([4]; 4000 ppm): + (+ for 24 hr)
Concentration exhibiting inhibitory potency (no growth) in all three replicates [4]: do not exhibit any inhibitory potency

CC(=O)O [Acetic acid]
Incubation time and appearance of growth ([1]; 5000 ppm, Table 3): + (+ for 24 hr)
Incubation time and appearance of growth ([1]; 10000 ppm, Table 3): + (+ for 24 hr)
Incubation time and appearance of growth ([1]; 15000 ppm, Table 3): + (+ for 24 hr)
Incubation time and appearance of growth ([1]; 20000 ppm, Table 3): no growth
Incubation time and appearance of growth ([1]; 25000 ppm, Table 3): no growth
Incubation time and appearance of growth ([1]; 30000 ppm, Table 3): no growth
Incubation time and appearance of growth ([1]; 40000 ppm, Table 3): no growth
Concentration exhibiting inhibitory potency (no growth) in all three replicates ([1]; acetic acid series): ≥ 20,000 ppm

CCC(=O)O.N [Ammonium propionate]
PENICILLIUM spp. count (Penicillium spp): 100 cfu/ml
ASPERGILLUS spp. count (Aspergillus spp): 1000 cfu/ml
FUSARIUM spp. count (Fusarium spp): 500 cfu/ml
